Data from patent publication US12509444B2, “Compounds and methods for CD73 modulation and indications therefor” (Plexxikon Inc., priority 2019, dated 2025).
pIC50: −log10 of the molar value.

Tests used:
[1] = target: T1, Human CD73 (amino acid residues 27-549) (Homo sapiens, UniProt P21589); assay: CD73 enzymatic assay (luciferase-based indirect assay, CellTiter-Glo); type: biochemical; conditions: 0.4 nM CD73, 150 μM AMP, 1 hour at room temperature
T1 construct: Human CD73 (amino acid residues 27-549); His tag (N); made in house; host or cells: E. coli
T1 sequence (P21589 27-549): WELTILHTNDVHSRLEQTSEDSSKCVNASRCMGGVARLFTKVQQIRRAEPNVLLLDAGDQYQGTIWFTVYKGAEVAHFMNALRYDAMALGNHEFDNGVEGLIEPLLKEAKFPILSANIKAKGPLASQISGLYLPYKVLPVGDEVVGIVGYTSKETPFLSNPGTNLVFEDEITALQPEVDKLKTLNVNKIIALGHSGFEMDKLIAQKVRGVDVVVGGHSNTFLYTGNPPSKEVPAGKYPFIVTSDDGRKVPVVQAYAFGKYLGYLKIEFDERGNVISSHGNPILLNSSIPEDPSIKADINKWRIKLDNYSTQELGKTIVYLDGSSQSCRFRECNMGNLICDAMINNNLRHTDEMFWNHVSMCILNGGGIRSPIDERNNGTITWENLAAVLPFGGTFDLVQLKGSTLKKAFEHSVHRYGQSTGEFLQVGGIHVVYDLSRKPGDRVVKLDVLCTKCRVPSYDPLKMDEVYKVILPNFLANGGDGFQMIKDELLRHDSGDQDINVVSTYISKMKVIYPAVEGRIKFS
Procedure, shortened: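 His-tagged human CD73 (27-549) from E. coli, 0.4 nM, with 150 μM AMP in 50 mM HEPES pH 7.4, 0.01% Tween 20; 1 h at room temperature. AMP remaining read by CellTiter-Glo 2.0 luminescence with 1 μM final ATP after 30 min. IC50 from nonlinear regression of % inhibition.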

human CD73 = target: T2, human CD73 (Homo sapiens, UniProt P21589); assay: Inhibitor activity against CD73 in cell based assay (CD73 expressing CHO-K1 cells); conditions: CHO-K1 cells expressing human CD73, 150 μM AMP, 4 hours of incubation; read-out: CHO-K1 CELL VARIANT: CD73 IC50
T2 construct: expressed in transfected cells
T2 sequence (P21589 27-549): T1 sequence (P21589 27-549)
Procedure, shortened: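 Stably transfected CHO-K1 cells expressing human CD73 (1×10^4/well) incubated 4 h with compound (8-point 1:3 titration, top 10 μM final, 0.2% DMSO) and 150 μM AMP. Residual AMP in supernatant measured by CellTiter-Glo luminescence with 1 μM ATP after 30 min at room temperature; IC50 by nonlinear regression of percent inhibition vs high/low controls.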

SMILES | pIC50 [1] | pIC50 (human CD73)
O=C(NC1CCCC(F)(F)C1)O[C@@H]1CCN(c2cnn(CCO)c(=O)c2Cl)C1 (stereo partly drawn) [P-0479, (R)-1-(5-chloro-1-(2-hydroxyethyl)-6-oxo-1,6-dihydropyridazin-4-yl)pyrrolidin-3-yl (3,3-difluorocyclohexyl)carbamate] | 5.00 to 9.00 | 5.00 to 9.00
O=C(NC1(C2CC2)CC1)O[C@@H]1CCN(c2cnn(CCO)c(=O)c2Cl)C1 [P-0480, (R)-1-(5-chloro-1-(2-hydroxyethyl)-6-oxo-1,6-dihydropyridazin-4-yl)pyrrolidin-3-yl [1,1′-bi(cyclopropan)]-1-ylcarbamate] | 5.00 to 9.00 | 5.00 to 9.00
O=C(N[C@@H]1CCC[C@@H]1O)O[C@@H]1CCN(c2cn[nH]c(=O)c2Cl)C1 [P-0481, (R)-1-(5-chloro-6-oxo-1,6-dihydropyridazin-4-yl)pyrrolidin-3-yl ((1R,2S)-2-hydroxycyclopentyl)carbamate] | 5.00 to 9.00 | 5.00 to 9.00
O=C(N[C@H]1CC[C@@H](NC2CCC(F)(F)CC2)CC1)O[C@@H]1CCN(c2cn[nH]c(=O)c2Cl)C1 [P-0482, (R)-1-(5-chloro-6-oxo-1,6-dihydropyridazin-4-yl)pyrrolidin-3-yl ((1s,4S)-4-((4,4-difluorocyclohexyl)amino)cyclohexyl)carbamate] | 5.00 to 9.00 | 5.00 to 9.00
N#Cc1c(N2C[C@H](OC(=O)NC3CCC(F)(F)CC3)[C@@H](F)C2)cn[nH]c1=O [P-0483, (3S,4S)-1-(5-cyano-6-oxo-1,6-dihydropyridazin-4-yl)-4-fluoropyrrolidin-3-yl (4,4-difluorocyclohexyl)carbamate] | 5.00 to 9.00 | 5.00 to 9.00
N#Cc1c(N2C[C@H](OC(=O)NC3CCCC3)[C@@H](F)C2)cn[nH]c1=O [P-0484, (3S,4S)-1-(5-cyano-6-oxo-1,6-dihydropyridazin-4-yl)-4-fluoropyrrolidin-3-yl cyclopentylcarbamate] | 5.00 to 9.00 | 5.00 to 9.00
N#Cc1c(N2C[C@H](OC(=O)NC3CCC(F)(F)CC3)[C@@H](F)C2)cnn(CCO)c1=O [P-0485, (3S,4S)-1-(5-cyano-1-(2-hydroxyethyl)-6-oxo-1,6-dihydropyridazin-4-yl)-4-fluoropyrrolidin-3-yl (4,4-difluorocyclohexyl)carbamate] | 5.00 to 9.00 | 5.00 to 9.00
N#Cc1c(N2C[C@H](OC(=O)NC3CCCC3)[C@@H](F)C2)cnn(CCO)c1=O [P-0486, (3S,4S)-1-(5-cyano-1-(2-hydroxyethyl)-6-oxo-1,6-dihydropyridazin-4-yl)-4-fluoropyrrolidin-3-yl cyclopentylcarbamate] | 5.00 to 9.00 | 5.00 to 9.00
O=C(N[C@H]1CC[C@@H](NC2CCOCC2)CC1)O[C@@H]1CCN(c2cn[nH]c(=O)c2Cl)C1 [P-0487, (R)-1-(5-chloro-6-oxo-1,6-dihydropyridazin-4-yl)pyrrolidin-3-yl ((1s,4S)-4-((tetrahydro-2H-pyran-4-yl)amino)cyclohexyl)carbamate] | 5.00 to 9.00 | 5.00 to 9.00
O=C(N[C@H]1CC[C@@H](NC2CC3CCC2C3)CC1)O[C@@H]1CCN(c2cn[nH]c(=O)c2Cl)C1 (stereo partly drawn) [P-0488, (R)-1-(5-chloro-6-oxo-1,6-dihydropyridazin-4-yl)pyrrolidin-3-yl ((1R,4S)-4-(((1S,4R)-bicyclo[2.2.1]heptan-2-yl)amino)cyclohexyl)carbamate] | 5.00 to 9.00 | 5.00 to 9.00
O=C(N[C@H]1CC[C@@H](NC2CCS(=O)(=O)CC2)CC1)O[C@@H]1CCN(c2cn[nH]c(=O)c2Cl)C1 [P-0489, (R)-1-(5-chloro-6-oxo-1,6-dihydropyridazin-4-yl)pyrrolidin-3-yl ((1s,4S)-4-((1,1-dioxidotetrahydro-2H-thiopyran-4-yl)amino)cyclohexyl)carbamate] | 5.00 to 9.00 | 5.00 to 9.00
O=C(NC1CCN(C(=O)Nc2ccc(F)cc2F)CC1)O[C@@H]1CCN(c2cn[nH]c(=O)c2Cl)C1 [P-0490, (R)-1-(5-chloro-6-oxo-1,6-dihydropyridazin-4-yl)pyrrolidin-3-yl (1-((2,4-difluorophenyl)carbamoyl)piperidin-4-yl)carbamate] | 5.00 to 9.00 | 5.00 to 9.00
